Assay [1] has as its system p21 induction in HCT116 cells. Kind of assay: p21 induction in HCT116 cells. The assay is classed as cell-based. Particulars: HCT116 cells, 24 h compound incubation, read-out: P21_EC50. The method, then:
The colon carcinoma cell line HCT116 was obtained from ATCC and cultured in growth medium consisting of Mccoy's 5A Medium (Gibco 16600108) supplemented with 10% FBS (Transgene FS201-02) and 100 units/mL penicillin-streptomycin (Gibco 15140122) and maintained at 37° C. under 5% CO2. On the day of seeding, 2,000 cells in 30 μL of culture media were plated per well to Poly-D-Lysine 384 Well Black Clear Plates (Biocoat 356663) and incubated overnight at 37° C. under 5% CO2. The following day, compounds were serially diluted in DMSO for a total of 11 test concentrations. […] Next, 150 nL of diluted compound was added in duplicate to the assay plate, using an Echo 655 (Labcyte). The plate was centrifuged at 500 RPM for 1 min and then incubated at 37° C. under 5% CO2 for 24 h. After 24 h, medium was removed, and cells were fixed by adding 40 μL of 4% paraformaldehyde solution to each well and incubated for 20 min at room temperature. The plate was then washed 4 times with 100 μL per well of wash buffer (PBS with 0.1% Tween-20) using a microplate washer. Next, 30 μL of ice-cold methanol was added to each well and the plate was incubated at −20° C. for 10 min. The plate was washed 4 times with 100 μL per well of wash buffer by a microplate washer, then 30 μL per well of blocking buffer (Intercept PBS blocking buffer (LI-COR 927-70001) with 0.05% Tween-20) was added and the plate was incubated at room temperature with shaking for 2 h. Next, to each test well, 20 μL of primary antibody solution (p21 Waf1/CIP (12D1) RabbitmAb (Cell Signaling Technologies 2947) diluted 1:1000 and GAPDH (D4C6R) Mouse mAb (Cell Signaling Technologies 97166) diluted 1:2000 in blocking buffer) was added and the plate was placed at 4° C., overnight. The following day, the plate was washed 5 times with 100 μL per well of wash buffer using a microplate washer for 5 min. 20 μL per well of secondary antibody (IRDye 680CW Goat anti-Mouse IgG (H+L) (LI-COR 926-68070) diluted 1: 2000 in Blocking Buffer and IRDye 800CW Goat anti-Rabbit IgG (H+L) (LI-COR 926-32211) diluted 1: 2000 in Blocking Buffer) was then added and the plate was stored for 2 h in the dark at room temperature with shaking. The plate was then washed 4 times with 100 μL per well of wash buffer again using a microplate washer. Finally, the p21 signal and the GAPDH signal were quantified using a LI-COR Odyssey CLx Imager machine reading at 800 nm and 700 nm, respectively. Each plate contained DMSO control (low control) and an internal reference WRN inhibitor (high control) respectively. […] EC50 values for each compound were generated after non-linear regression curve fitting using commercially available software.

The target in assay [2] is WRN (BV08), human Werner helicase (Uniprot Q14191, amino acids 517-1235 with L1074F point mutation) (Homo sapiens (Human), UniProt Q14191, L1074F). The assay is described as follows: WRN (BV08) ADP-Glo assay. The assay is classed as biochemical. Particulars: class symbols A-E, read-out: ADP-Glo_hWRN_IC50. The protocol: Bovine skin gelatin (BSG), dimethyl sulfoxide (DMSO), Pluronic F-127 and tris(2-carboxyethyl)phosphine hydrochloride solution (TCEP) were purchased from Sigma-Aldrich (St. Louis, MO) at the highest level of purity possible. […] DNA strands were annealed by heating to 95° C. for 5 minutes followed by slow cooling to room temperature. Compounds in 100% DMSO (0.1 μl) were spotted into a 384-well white polystyrene Optiplate-384 (Perkin Elmer; Waltham, MA) assay plate using a LabCyte Echo 550 (Agilent; Santa Clara, CA). DMSO (0.1 μl) was added to columns 12, rows A-H and column 24, rows I-P for the maximum signal control. […] Compounds/DMSO were preincubated for 15 minutes at 25° C. with 5 μl 2×WRN (BV08), prepared as described below, in assay buffer containing 20 mM Bicine (pH=7.5), 1 mM MgCl2, 10 mM KCl, 0.1% Pluronic F-127, 0.005% BSG, 1 mM TCEP. The reaction was initiated by the addition of 5 μl 2× substrate mixture in assay buffer and incubated for 60 minutes at 25° C. The final concentrations of the assay components were 0.15 nM WRN, 5 μM ATP, and 0.1 nM DNA duplex. The final DMSO concentration was 1% and the reference compound concentration (NSC-617145) used for the minimal signal control was 20 μM. The reaction was stopped by the addition of the ADP-Glo Kit components (Promega; Madison, WI) as directed and the relative luminescence units (RLU) were read on an Envision 2104 (Perkin Elmer; Waltham, MA). % inhibition calculation:
[formula] • Where RLU=relative luminescence units, sample=signal in sample well, and MIN and MAX are the respective minimum and maximum signal controls.
[formula] • Where top and bottom are normally allowed to float but may be fixed at 100 or 0 respectively in a 3-parameter fit. Y is the % inhibition and X is the compound concentration.
Molecular Biology and virus production. […] The baculovirus from the expression plasmid WRN—BV08 was generated from transfection and amplification following the manufacturer's instructions.
Sf9 cells grown in SF900II media were infected with 1:200 WRN—BV08 P2 virus and incubated for protein expression for 72 h at 27° C. The WRN protein was purified using the following protocol. The cell pellets were thawed and resuspended in buffer A (50 mM Tris, pH 7.5, 500 mM NaCl, 1 mM TCEP, 10% Glycerol) supplemented with 0.5% CHAPS, 1 mM PMSF, 1 μg/ml Leupeptin, 1 μg/ml Pepstatin, and the Pierce Universal Nuclease and cocktail tablet. Cleared lysates were loaded onto a Ni Sepharose™ excel column and washed with buffer A and bound protein was eluted with buffer A supplemented with 300 mM imidazole. The eluted protein was dialyzed against buffer A and digested by His-tagged TEV (1:5 ratio) overnight at 4° C. ZnCl2 was added into the sample at final 15 μM before loading onto a second Ni Sepharose™ excel column. Untagged WRN protein was eluted from the column with buffer A supplemented with 20 mM imidazole, dialyzed overnight into buffer B (50 mM Tris, pH 7.5, 1 mM TCEP, 10% Glycerol) supplemented with 150 mM NaCl and loaded onto a Heparin column. Proteins were eluted with a step gradient of buffer B supplemented with 150 mM, 200 mM, 300 mM and 500 mM NaCl. WRN containing fractions were pooled and concentrated prior to loading on to size exclusion chromatography using a HiLoad 16/600 Superdex™ 200 pg column (GE Healthcare) in buffer C (20 mM HTEPES, pH 7.5, 250 mM NaCl, 0.25 mM TCEP, […]).

Like-named read-outs stand apart in the source and are kept apart here.

Sequence of WRN (BV08), human Werner helicase (Uniprot Q14191, amino acids 517-1235 with L1074F point mutation) (Q14191 other isoform, or with tags, fused parts or gaps L1074F (already in the parent)): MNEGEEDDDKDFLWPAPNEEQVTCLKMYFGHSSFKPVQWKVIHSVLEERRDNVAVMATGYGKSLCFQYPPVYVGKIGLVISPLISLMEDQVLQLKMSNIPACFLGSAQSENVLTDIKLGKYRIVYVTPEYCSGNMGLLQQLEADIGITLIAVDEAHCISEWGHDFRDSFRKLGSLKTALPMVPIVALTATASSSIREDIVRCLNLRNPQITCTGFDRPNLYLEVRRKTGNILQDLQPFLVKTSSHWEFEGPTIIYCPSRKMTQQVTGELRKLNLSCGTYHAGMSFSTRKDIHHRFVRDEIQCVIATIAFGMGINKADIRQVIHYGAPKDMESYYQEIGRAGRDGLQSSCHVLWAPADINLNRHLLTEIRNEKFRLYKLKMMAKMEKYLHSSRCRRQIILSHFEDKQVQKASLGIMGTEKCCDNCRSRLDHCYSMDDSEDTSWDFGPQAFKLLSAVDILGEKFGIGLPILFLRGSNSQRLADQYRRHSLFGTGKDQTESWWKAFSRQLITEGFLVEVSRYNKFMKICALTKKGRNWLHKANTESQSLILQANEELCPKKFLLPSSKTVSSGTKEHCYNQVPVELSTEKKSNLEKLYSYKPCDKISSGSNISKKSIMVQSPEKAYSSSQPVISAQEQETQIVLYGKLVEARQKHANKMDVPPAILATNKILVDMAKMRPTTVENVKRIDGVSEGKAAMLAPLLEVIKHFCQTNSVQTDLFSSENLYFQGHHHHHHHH

With `CCc1c(N2CCN(C(=O)c3ncnc(C)c3O)C[C@@H]2CC)c(=O)c2nc(N(C)C)cnc2n1CC(=O)Nc1ccc(C(F)(F)F)cc1Cl` [I-191, N-[2-chloro-4-(trifluoromethyl)phenyl]-2-[2-(dimethylamino)-6-ethyl-7-[(2S)-2-ethyl-4-(5-hydroxy-6-methylpyrimidine-4-carbonyl)piperazin-1-yl]-8-oxo-5H,8H-pyrido[2,3-b]pyrazin-5-yl]acetamide], the EC50 in assay [1] (Homo sapiens, HCT-116, 24 h) is 500 to 2000 nM. In addition, in assay [2], the IC50 lay in the range of 5 to 50 nM.

Turning to `CCc1c(N2CCN(C(=O)c3ncnc(C)c3O)CC2)c(=O)c2nc(N3CCC4CC43)cnc2n1CC(=O)Nc1ccc(C(F)(F)F)cc1Cl` (centres unmarked) [I-93, 2-(2-(2-azabicyclo[3.1.0]hexan-2-yl)-6-ethyl-7-(4-(5-hydroxy-6-methylpyrimidine-4-carbonyl)piperazin-1-yl)-8-oxopyrido[2,3-b]pyrazin-5(8H)-yl)-N-(2-chloro-4-(trifluoromethyl)phenyl)acetamide], the EC50 in assay [1] (Homo sapiens, HCT-116, 24 h) is 500 to 2000 nM. For the same compound, the IC50 in assay [2] is 5 to 50 nM.

Take `CCc1c(N2CC3COCC(C2)N3C(=O)c2ncnc(C)c2O)c(=O)c2nc(N(C)C)cnc2n1CC(=O)Nc1ccc(C(F)(F)F)cc1Cl` [I-168, N-[2-chloro-4-(trifluoromethyl)phenyl]-2-[2-(dimethylamino)-6-ethyl-7-[9-(5-hydroxy-6-methylpyrimidine-4-carbonyl)-3-oxa-7,9-diazabicyclo[3.3.1]nonan-7-yl]-8-oxo-5H,8H-pyrido[2,3-b]pyrazin-5-yl]acetamide]: the EC50 in assay [1] (Homo sapiens, HCT-116, 24 h) is above 5000 nM. Besides, the IC50 in assay [2] was 100 to 500 nM.

Take `CCc1c(N2CCN(C(=O)c3ncnc(C)c3O)CC2)c(=O)c2nc(N3CCC3)cnc2n1CC(=O)Nc1ccc(C(F)(F)F)cc1Cl` [I-53, 2-(2-(azetidin-1-yl)-6-ethyl-7-(4-(5-hydroxy-6-methylpyrimidine-4-carbonyl)piperazin-1-yl)-8-oxopyrido[2,3-b]pyrazin-5(8H)-yl)-N-(2-chloro-4-(trifluoromethyl)phenyl)acetamide]: in assay [1] (Homo sapiens, HCT-116, 24 h), the EC50 lay within 500 to 2000 nM. Also, the IC50 in assay [2] lay in the range of 5 to 50 nM.

As for `CCc1c(N2CCN(C(=O)c3ncnc(C)c3O)[C@@H]3CC[C@H]32)c(=O)c2nc(NC)cnc2n1CC(=O)Nc1ccc(C(F)(F)F)cc1Cl` (single isomer, unassigned) [I-172, N-(2-chloro-4-(trifluoromethyl)phenyl)-2-(6-ethyl-7-(5-(5-hydroxy-6-methylpyrimidine-4-carbonyl)-2,5-diazabicyclo[4.2.0]octan-2-yl)-2-(methylamino)-8-oxopyrido[2,3-b]pyrazin-5(8H)-yl)acetamide], the EC50 in assay [1] (Homo sapiens, HCT-116, 24 h) is below 500 nM. Besides, in assay [2], the IC50 is at most 5 nM.

For `CCc1c(N2CCN(C(=O)c3ncnc(C)c3O)C[C@@H]2C)c(=O)c2nc(N(C)C)cnc2n1CC(=O)Nc1ccc(C(F)(F)F)cc1Cl` [I-98, (S)—N-(2-chloro-4-(trifluoromethyl)phenyl)-2-(2-(dimethylamino)-6-ethyl-7-(4-(5-hydroxy-6-methylpyrimidine-4-carbonyl)-2-methylpiperazin-1-yl)-8-oxopyrido[2,3-b]pyrazin-5(8H)-yl)acetamide], the EC50 in assay [1] (Homo sapiens, HCT-116, 24 h) was below 500 nM. Moreover, the IC50 in assay [2] lay within 5 to 50 nM.

With `CCc1c(N2CCN(C(=O)c3ncnc(C)c3O)CC2)c(=O)c2nc(O)cnc2n1CC(=O)Nc1ccc(C(F)(F)F)cc1Cl` [I-24, N-(2-chloro-4-(trifluoromethyl)phenyl)-2-(6-ethyl-2-hydroxy-7-(4-(5-hydroxy-6-methylpyrimidine-4-carbonyl)piperazin-1-yl)-8-oxopyrido[2,3-b]pyrazin-5(8H)-yl)acetamide], the EC50 in assay [1] (Homo sapiens, HCT-116, 24 h) is above 5000 nM. Besides, in assay [2], the IC50 lay in the range of 5 to 50 nM.

On to `CCc1c(N2CCN(C(=O)c3ncnc(C)c3O)[C@@H](COC)C2)c(=O)c2nc(N(C)C)cnc2n1CC(=O)Nc1ccc(C(F)(F)F)cc1Cl` (single isomer, unassigned) [I-96, N-(2-chloro-4-(trifluoromethyl)phenyl)-2-(2-(dimethylamino)-6-ethyl-7-(4-(5-hydroxy-6-methylpyrimidine-4-carbonyl)-3-(methoxymethyl)piperazin-1-yl)-8-oxopyrido[2,3-b]pyrazin-5(8H)-yl)acetamide], for which the EC50 in assay [1] was above 5000 nM. The IC50 in assay [2] lay in the range of 5 to 50 nM.

Turning to `CCc1c(N2CCN(C(=O)c3ccnc(OC)c3O)CC2)c(=O)c2ncc(C)nc2n1CC(=O)Nc1ccc(C(F)(F)F)cc1Cl` [I-4, N-(2-chloro-4-(trifluoromethyl)phenyl)-2-(6-ethyl-7-(4-(3-hydroxy-2-methoxyisonicotinoyl)piperazin-1-yl)-3-methyl-8-oxopyrido[2,3-b]pyrazin-5(8H)-yl)acetamide], in assay [1] (Homo sapiens, HCT-116, 24 h), the EC50 is above 5000 nM. Also, the IC50 in assay [2] was in the range of 5 to 50 nM.

In the case of `CCc1c(N2CCN(C(=O)c3c(OC)ncc(COC)c3O)[C@H]3CC[C@@H]32)c(=O)c2nc(N(C)C)cnc2n1CC(=O)Nc1ccc(C(F)(F)F)cc1Cl` [I-292, N-[2-chloro-4-(trifluoromethyl)phenyl]-2-[2-(dimethylamino)-6-ethyl-7-[(1S,6S)-5-[4-hydroxy-2-methoxy-5-(methoxymethyl)pyridine-3-carbonyl]-2,5-diazabicyclo[4.2.0]octan-2-yl]-8-oxo-5H,8H-pyrido[2,3-b]pyrazin-5-yl]acetamide], the EC50 in assay [1] (Homo sapiens, HCT-116, 24 h) was above 5000 nM. Further, the IC50 in assay [2] is 5 to 50 nM.

The values are drawn from patent publication US20250034136A1 (Nimbus Wadjet, Inc., priority 2023, published 2025).
